In patent publication US7396837B2, “Antitumoral analogs of lamellarins” (Pharma Mar, S.A.U., priority 2002, dated 2008):

How the values were obtained:
Type in all cases: cell-based
IGROV = test: SRB colorimetric cell growth inhibition assay, IGROV; conditions: Homo sapiens, IGROV; for GI50: GI=growth inhibition, read-out: GI50 IGROV; for CC50: cell killing (cytotoxic effect), read-out: LC50 IGROV; for IC (TGI): total growth inhibition (cytostatic effect), read-out: TGI IGROV
Summary of the method: (§1)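 Sulforhodamine B colorimetric readout measured cell growth and viability after continuous compound exposure of human cancer cell lines in 96-well plates. Triplicate wells gave mean ± SD, from which growth inhibition (GI), cytostatic total growth inhibition (TGI) and cytotoxic cell killing (LC) were calculated.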

DU-145 = test: SRB colorimetric cell growth inhibition assay, DU-145; conditions: Homo sapiens, DU-145, DU-145; for GI50: GI=growth inhibition, read-out: GI50 DU-145; for CC50: cell killing (cytotoxic effect), read-out: LC50 DU-145; for IC (TGI): total growth inhibition (cytostatic effect), read-out: TGI DU-145
Summary of the method: as §1

LNCaP = test: SRB colorimetric cell growth inhibition assay, LNCaP; conditions: Homo sapiens, LNCaP, LN-caP; for GI50: GI=growth inhibition, read-out: GI50 LN-caP; for CC50: cell killing (cytotoxic effect), read-out: LC50 LN-caP; for IC (TGI): total growth inhibition (cytostatic effect), read-out: TGI LN-caP
Summary of the method: as §1

SK-MEL-28 = test: SRB colorimetric cell growth inhibition assay, SK-MEL-28; conditions: Homo sapiens, SK-MEL-28, MEL-28; for GI50: GI=growth inhibition, read-out: GI50 MEL-28; for CC50: cell killing (cytotoxic effect), read-out: LC50 MEL-28; for IC (TGI): total growth inhibition (cytostatic effect), read-out: TGI MEL-28
Summary of the method: as §1

A-549 = test: SRB colorimetric cell growth inhibition assay, A-549; conditions: Homo sapiens, A549, A-549; for GI50: GI=growth inhibition, read-out: GI50 A-549; for CC50: cell killing (cytotoxic effect), read-out: LC50 A-549; for IC (TGI): total growth inhibition (cytostatic effect), read-out: TGI A-549
Summary of the method: as §1

SK-BR-3 = test: SRB colorimetric cell growth inhibition assay, SK-BR-3; conditions: Homo sapiens, SK-BR-3, SK-BR-3; for GI50: GI=growth inhibition, read-out: GI50 SK-BR-3; for CC50: cell killing (cytotoxic effect), read-out: LC50 SK-BR-3; for IC (TGI): total growth inhibition (cytostatic effect), read-out: TGI SK-BR-3
Summary of the method: as §1

LoVo-Dox = test: SRB colorimetric cell growth inhibition assay, LoVo-Dox (MDR); conditions: Homo sapiens, LOVO-DOX; for GI50: GI=growth inhibition, read-out: GI50 LOVO-DOX; for CC50: cell killing (cytotoxic effect), read-out: LC50 LOVO-DOX; for IC (TGI): total growth inhibition (cytostatic effect), read-out: TGI LOVO-DOX
Summary of the method: as §1

PANC-1 = test: SRB colorimetric cell growth inhibition assay, PANC-1; conditions: Homo sapiens, PANC-1, PANC-1; for GI50: GI=growth inhibition, read-out: GI50 PANC-1; for CC50: cell killing (cytotoxic effect), read-out: LC50 PANC-1; for IC (TGI): total growth inhibition (cytostatic effect), read-out: TGI PANC-1
Summary of the method: as §1

K-562 = test: SRB colorimetric cell growth inhibition assay, K-562; conditions: Homo sapiens, K562, K-562; for GI50: GI=growth inhibition, read-out: GI50 K-562; for CC50: cell killing (cytotoxic effect), read-out: LC50 K-562; for IC (TGI): total growth inhibition (cytostatic effect), read-out: TGI K-562
Summary of the method: as §1

HeLa = test: SRB colorimetric cell growth inhibition assay, HeLa; conditions: Homo sapiens, HeLa; for GI50: GI=growth inhibition, read-out: GI50 HELA; for CC50: cell killing (cytotoxic effect), read-out: LC50 HELA; for IC (TGI): total growth inhibition (cytostatic effect), read-out: TGI HELA
Summary of the method: as §1

LoVo = test: SRB colorimetric cell growth inhibition assay, LoVo; conditions: Homo sapiens, LoVo; for GI50: GI=growth inhibition, read-out: GI50 LOVO; for CC50: cell killing (cytotoxic effect), read-out: LC50 LOVO; for IC (TGI): total growth inhibition (cytostatic effect), read-out: TGI LOVO
Summary of the method: as §1

HeLa-APL = test: SRB colorimetric cell growth inhibition assay, HeLa-APL (aplidine resistant); conditions: Homo sapiens, HELA-APL; for GI50: GI=growth inhibition, read-out: GI50 HELA-APL; for CC50: cell killing (cytotoxic effect), read-out: LC50 HELA-APL; for IC (TGI): total growth inhibition (cytostatic effect), read-out: TGI HELA-APL
Summary of the method: as §1

IGROV-ET = test: SRB colorimetric cell growth inhibition assay, IGROV-ET (ET-743 resistant); conditions: Homo sapiens, IGROV-ET; for GI50: GI=growth inhibition, read-out: GI50 IGROV-ET; for CC50: cell killing (cytotoxic effect), read-out: LC50 IGROV-ET; for IC (TGI): total growth inhibition (cytostatic effect), read-out: TGI IGROV-ET
Summary of the method: as §1

HT-29 = test: SRB colorimetric cell growth inhibition assay, HT-29; conditions: Homo sapiens, HT-29, HT-29; for GI50: GI=growth inhibition, read-out: GI50 HT-29; for CC50: cell killing (cytotoxic effect), read-out: LC50 HT-29; for IC (TGI): total growth inhibition (cytostatic effect), read-out: TGI HT-29
Summary of the method: as §1

## COc1cc(-c2c3c4cc(OC)c(OC(=O)[C@H](C)N)cc4oc(=O)c3n3ccc4cc(OC(=O)[C@H](C)N)c(OC)cc4c23)ccc1OC(=O)[C@H](C)N [Compound 199]
IGROV
  GI50: 18.9 nM
  CC50: 873 nM
  IC (TGI): 96.2 nM
DU-145
  GI50: 3.73 nM
  CC50: 37.2 nM
  IC (TGI): 9.93 nM
LNCaP
  GI50: 15.8 nM
  CC50: 392 nM
  IC (TGI): 89.2 nM
SK-MEL-28
  GI50: 32.6 nM
  CC50: 7040 nM
  IC (TGI): 151 nM
A-549
  GI50: 60.6 nM
  CC50: 12200 nM
  IC (TGI): 1330 nM
SK-BR-3
  GI50: 46.6 nM
  CC50: 8280 nM
  IC (TGI): 97.4 nM
LoVo-Dox
  GI50: 73.7 nM
  CC50: 12200 nM
  IC (TGI): 499 nM
PANC-1
  GI50: 36.9 nM
  CC50: 8080 nM
  IC (TGI): 276 nM
K-562
  GI50: 11.2 nM
  CC50: 281 nM
  IC (TGI): 55.5 nM
HeLa
  GI50: 29.9 nM
  CC50: 651 nM
  IC (TGI): 199 nM
LoVo
  GI50: 128 nM
  CC50: 879 nM
  IC (TGI): 335 nM
HeLa-APL
  GI50: 71.8 nM
  CC50: 574 nM
  IC (TGI): 242 nM
IGROV-ET
  GI50: 31.3 nM
  CC50: 12200 nM
  IC (TGI): 159 nM
HT-29
  GI50: 2140 nM
  CC50: 12200 nM
  IC (TGI): 6710 nM

## COc1cc(-c2c3c4cc(OC)c(OC(=O)[C@@H](N)Cc5ccccc5)cc4oc(=O)c3n3ccc4cc(OC(=O)[C@@H](N)Cc5ccccc5)c(OC)cc4c23)ccc1OC(=O)[C@@H](N)Cc1ccccc1 [Compound 204]
IGROV
  GI50: 23.8 nM
  CC50: 526 nM
  IC (TGI): 113 nM
DU-145
  GI50: 5.63 nM
  CC50: 44.7 nM
  IC (TGI): 17.4 nM
LNCaP
  GI50: 79 nM
  CC50: 597 nM
  IC (TGI): 229 nM
SK-MEL-28
  GI50: 26.8 nM
  CC50: 7140 nM
  IC (TGI): 243 nM
A-549
  GI50: 31.1 nM
  CC50: 9520 nM
  IC (TGI): 1000 nM
SK-BR-3
  GI50: 151 nM
  CC50: 1090 nM
  IC (TGI): 390 nM
LoVo-Dox
  GI50: 160 nM
  CC50: 9520 nM
  IC (TGI): 6340 nM
PANC-1
  GI50: 44.7 nM
  CC50: 392 nM
  IC (TGI): 171 nM
K-562
  GI50: 7.48 nM
  CC50: 596 nM
  IC (TGI): 203 nM
HeLa
  GI50: 36.9 nM
  CC50: 452 nM
  IC (TGI): 172 nM
LoVo
  GI50: 113 nM
  CC50: 463 nM
  IC (TGI): 228 nM
HeLa-APL
  GI50: 88.8 nM
  CC50: 594 nM
  IC (TGI): 235 nM
IGROV-ET
  GI50: 18 nM
  CC50: 9520 nM
  IC (TGI): 109 nM
HT-29
  GI50: 1400 nM
  CC50: 9520 nM
  IC (TGI): 3800 nM

## COc1cc(-c2c3c4cc(OC)c(OC(=O)C[C@H](N)C(C)C)cc4oc(=O)c3n3ccc4cc(OC(=O)C[C@H](N)C(C)C)c(OC)cc4c23)ccc1OC(=O)C[C@H](N)C(C)C [Compound 206]
IGROV
  GI50: 52.7 nM
  CC50: 589 nM
  IC (TGI): 194 nM
DU-145
  GI50: 21.8 nM
  CC50: 72.5 nM
  IC (TGI): 39.9 nM
LNCaP
  GI50: 75.2 nM
  CC50: 3330 nM
  IC (TGI): 475 nM
SK-MEL-28
  GI50: 44 nM
  CC50: 1040 nM
  IC (TGI): 169 nM
A-549
  GI50: 55.8 nM
  CC50: 2770 nM
  IC (TGI): 410 nM
SK-BR-3
  GI50: 70.1 nM
  CC50: 2890 nM
  IC (TGI): 451 nM
LoVo-Dox
  GI50: 294 nM
  CC50: 6370 nM
  IC (TGI): 1010 nM
PANC-1
  GI50: 137 nM
  CC50: 6250 nM
  IC (TGI): 1270 nM
K-562
  GI50: 31.1 nM
  CC50: 4230 nM
  IC (TGI): 1110 nM
HeLa
  GI50: 50.5 nM
  CC50: 1930 nM
  IC (TGI): 330 nM
LoVo
  GI50: 167 nM
  CC50: 660 nM
  IC (TGI): 331 nM
HeLa-APL
  GI50: 83.4 nM
  CC50: 2820 nM
  IC (TGI): 523 nM
IGROV-ET
  GI50: 29.7 nM
  CC50: 589 nM
  IC (TGI): 190 nM
HT-29
  GI50: 1320 nM
  CC50: 10500 nM
  IC (TGI): 10500 nM
